Experiments:
[1] = molar heat capacity at constant pressure; xn = mol fraction of the nth substance listed; details: 298 K, 101 kPa, Liquid, Small sample (50 mg) DSC
[2] = molar heat capacity at constant pressure; details: 101.33 kPa, Liquid, Small sample (50 mg) DSC

CCCC[n+]1ccn(C)c1.O=S(=O)([N-]S(=O)(=O)C(F)(F)F)C(F)(F)F + CCCCn1cc[n+](C)c1.[Cl-]
[1]
Details	molar heat capacity at constant pressure [J/K/mol]
x2 = 0.0919	549
x2 = 0.2394	515
x2 = 0.4129	468
x2 = 0.5832	420

CCCC[n+]1ccn(C)c1.O=S(=O)([N-]S(=O)(=O)C(F)(F)F)C(F)(F)F
[2]
Details	molar heat capacity at constant pressure [J/K/mol]
293 K	595
298 K	599
303 K	603
308 K	607
313 K	612
318 K	617
323 K	621
328 K	624
333 K	628
338 K	631
343 K	634
348 K	636
353 K	639
358 K	641

CCn1cc[n+](C)c1.O=S(=O)([N-]S(=O)(=O)C(F)(F)F)C(F)(F)F
[2]
Details	molar heat capacity at constant pressure [J/K/mol]
293 K	523
298 K	525
303 K	527
308 K	529
313 K	533
318 K	535
323 K	538
328 K	539
333 K	542
338 K	545
343 K	547
348 K	548
353 K	550
358 K	551

CCOS(=O)(=O)[O-].CCn1cc[n+](C)c1 [1-ethyl-3-methylimidazolium ethyl sulfate]
[2]
Details	molar heat capacity at constant pressure [J/K/mol]
293 K	388
298 K	389
303 K	391
308 K	394
313 K	398
318 K	402
323 K	406
328 K	410
333 K	415
338 K	420
343 K	427
348 K	433
353 K	440
358 K	447

CCCCCCCCCCCCCC[P+](CCCCCC)(CCCCCC)CCCCCC.O=S(=O)([N-]S(=O)(=O)C(F)(F)F)C(F)(F)F
[2]
Details	molar heat capacity at constant pressure [J/K/mol]
293 K	1366
298 K	1366
303 K	1368
308 K	1372
313 K	1379
318 K	1384
323 K	1389
328 K	1389
333 K	1395
338 K	1397
343 K	1402
348 K	1405
353 K	1409
358 K	1413

CCCCCC[n+]1ccn(C)c1.O=S(=O)([N-]S(=O)(=O)C(F)(F)F)C(F)(F)F
[2]
Details	molar heat capacity at constant pressure [J/K/mol]
293 K	669
298 K	667
303 K	667
308 K	668
313 K	671
318 K	673
323 K	675
328 K	676
333 K	679
338 K	680
343 K	683
348 K	685
353 K	687
358 K	689

CCCC[N+]1(C)CCCC1.O=S(=O)([N-]S(=O)(=O)C(F)(F)F)C(F)(F)F
[2]
Details	molar heat capacity at constant pressure [J/K/mol]
293 K	630
298 K	629
303 K	632
308 K	639
313 K	644
318 K	650
323 K	654
328 K	656
333 K	659
338 K	661
343 K	660
348 K	659
353 K	658

CCCC[N+]1(C)CCCC1.FC(F)(F)C(F)(F)[P-](F)(F)(F)(C(F)(F)C(F)(F)F)C(F)(F)C(F)(F)F
[2]
Details	molar heat capacity at constant pressure [J/K/mol]
293 K	767
298 K	769
303 K	773
308 K	776
313 K	781
318 K	785
323 K	788
328 K	791
333 K	796
338 K	799
343 K	803
348 K	806
353 K	809
358 K	812

CCCCn1cc[n+](C)c1.O=S(=O)([O-])C(F)(F)F [1-butyl-3-methylimidazolium trifluoromethanesulfonate]
[2]
Details	molar heat capacity at constant pressure [J/K/mol]
293 K	455
298 K	457
303 K	459
308 K	461
313 K	465
318 K	469
323 K	473
328 K	477
333 K	481
338 K	486
343 K	490
348 K	495
353 K	500
358 K	504

CCCCCCCCn1cc[n+](C)c1.O=S(=O)([N-]S(=O)(=O)C(F)(F)F)C(F)(F)F
[2]
Details	molar heat capacity at constant pressure [J/K/mol]
293 K	724
298 K	733
303 K	741
308 K	748
313 K	756
318 K	765
323 K	773
328 K	779
333 K	788
338 K	795
343 K	803
348 K	810
353 K	817
358 K	825

CCCCn1cc[n+](C)c1.O=S(=O)([O-])C(F)(F)F [1-butyl-3-methylimidazolium trifluoromethanesulfonate] + O
[1]
Details	molar heat capacity at constant pressure [J/K/mol]
x2 = 0.0108	448
x2 = 0.137	401
x2 = 0.3379	325
x2 = 0.5215	257

Source: the NIST ThermoML archive (doi:10.1021/je800335v)
